According to patent US5556849A, “Ruthenium containing phthalocyanin photosensitizers” (priority 1991, dated 1996):

Key:
[1] = Singlet oxygen generation by photo-degradation of nitrosoanaline dye; details: 15 minutes of irradiation, 4° C.
[2] = Light absorption maxima and molar extinction coefficients; format: physicochemical
Procedure: (§1) Compounds according to the invention were assessed and characterised by their light absorption maxima, and their molar extinction coefficients according to conventional test procedures. Most of the compound were tested for their biological activity according to conventional test procedures in the art. The PC50 represents phototoxic concentration 50%. which is the concentration of compound when exposed to a light dose as described herein, causes a 50% reduction in cancer cell growth vs an untreated control population. The phototoxicity index. PI, is the ratio of the PC50 to the cytotoxic concentration 50%. where the growth is reduced by 50% without a light dose being given.

[3] = system: Adherent cells (HeLa RCA. SKOV OVCAR); assay: Phototoxicity (Light): 3H-thymidine incorporation in adherent cells after irradiation, with dark cytotoxicity for PI; format: cell-based
Procedure: The media is removed and the cells washed three times with D-PBS. and then covered with D-PBS (200 μl ) and exposed to light from the same source used in the singlet oxygen assay.
This follows the procedure for phototoxicity except that the cells are never exposed to light. The assay is relative to a non-treated control.
as §1
PC50 is determined by a relatively simple in vitro assay on a cellular level, which is generally indicative of photosensitizing activity.

normal rat liver = assay: Photodynamic threshold dose in normal rat liver, depth of necrosis; format: in vivo, adult Wistat rats
Procedure: The photodynamic threshold dose in normal rat liver was used as a model. This has been developed by Singh and Wilson at McMaster University and used to study both chloroaluminum phthalocyanine sulfonate (ASPc) and photofrin (Patterson, M S, et at, Photochern Photobiol, 51,343-349, 1990, and Farrell, T J, et at, Proc SPIE1426, 146-155, 1991).
1. Inject compound at 2.5 mg/ml into tail vein of adult Wistat rats at doses of 5, 10.20 mg/kg.
2. 24 hours later expose liver by laparotomy and irradiate surface at up to four locations with a 5 mm diameter lightbeam from an argon-dye laser operating at 650 nm: incident power =40 m Watt: incident fluenee rate =200 mW cm^-2 : treatment time =5 or 10 minutes (60. 120 Joules cm^-2).
3. 24 hours later inject Evans Blue iv, sacrifice at 15 minutes, section Liver through each radiation spot and measure depth of necrosis as indicated by dye exclusion.

Row | Substance | rate of singlet oxygen production [1] | ε (molar extinction coefficient) [2] [M⁻¹ cm⁻¹] | λmax Q ([2]; in water (W)) | PI (phototoxicity index) ([3]; ratio of PC50 to cytotoxic concentration 50% (no light)) | IC50 ([3]; with light dose, 50% reduction in cancer cell growth vs untreated control, 24 h incubation with sensitizer, read-out: PC50 (phototoxic concentration 50%)) [nM] | depths of necrosis compared with previously studied agents (normal rat liver; at similar drug and light levels, Photofrin and AlSPc given ip) | Depth of Necrosis (normal rat liver; dose 5 mg/kg iv, fluence 60 J cm^-2, 650 nm) [mm] | Depth of Necrosis (normal rat liver; dose 5 mg/kg iv, fluence 120 J cm^-2, 650 nm) [mm] | Depth of Necrosis (normal rat liver; dose 10 mg/kg iv, fluence 60 J cm^-2, 650 nm) [mm] | Depth of Necrosis (normal rat liver; dose 10 mg/kg iv, fluence 120 J cm^-2, 650 nm) [mm] | Depth of Necrosis (normal rat liver; dose 20 mg/kg iv, fluence 60 J cm^-2, 650 nm) [mm] | Depth of Necrosis (normal rat liver; dose 20 mg/kg iv, fluence 120 J cm^-2, 650 nm) [mm] | photodynamic activity in vivo (normal rat liver; in words)
1 | aluminium phthalocyanine sulphonate | on the order of one or two logs better than some of the sensitizers listed | – | – | – | – | – | – | – | – | – | – | – | –
2 | K2 [Ru(Pc)bis(triphenvlphosphine monosulfonate)]trihydrate [Compound A] | – | 88200 | 650 | > 100 | 1140 | comparable to those with previously studied agents | 1.86 ± 0.34 | 2.5 ± 0.0 | 2.16 ± 0.10 | 2.41 ± 0.16 | 1.66 ± 0.05 | 1.94 ± 0.04 | photodynamically active in vivo
